According to patent US20110033946A1, “DETECTION OF SHORT-CHAIN FATTY ACIDS IN BIOLOGICAL SAMPLES” (HEMAQUEST PHARMACEUTICALS, INC., priority 2009, published 2011):

Assay: Stock solution stability at approximately 4° C. (old vs new stock peak areas)
Type: physicochemical
Settings: for Stock solution stability, RE % (to New) of old stock peak area: approximately 4° C.
Experimental: The following LC-MS/MS conditions were applied for the analysis of underivatized sodium 2,2-dimethylbutyrate and DMV for stock solution stability analysis (2 to 3.5 month), and system suitability associated with these analyses: The following samples were also analyzed either in conjunction with one of the precision and accuracy runs or in one of the additional validation runs. Samples from six lots of control human plasma for specificity. Samples from six lots of control human plasma fortified with internal standard for specificity. Two concentration levels of unextracted QC-samples in triplicate (solvent standards) were analyzed for the evaluation of the recovery of sodium 2,2-dimethylbutyrate and DMV in human plasma. Two levels of QC samples (Low QC and High QC in triplicate) were subjected to three freeze/thaw cycles at approximately −70° C. prior to extraction to evaluate freeze/thaw stability. Two levels of QC samples (Low QC and High QC in triplicate) were placed on the bench top for approximately 17 hours prior to extraction for the evaluation of the bench top stability. Triplicate low QC samples and triplicate high QC samples were stored for one month and three months in a freezer at approximately −70° C., and then extracted and analyzed to evaluate long term stability in human plasma. Two levels of extracted QC samples (Low QC and High QC) were re-analyzed after approximately 71 hours in the autosampler at room temperature to evaluate the extract autosampler stability. Two levels of extracted QC samples (Low QC and High QC) were re-analyzed after approximately 8 hours in the freezer at approximately −20° C. to evaluate the extract freeze stability. Three aliquots of a dilution QC sample diluted 10-fold. Triplicate dilutions of the old stock solution (stored at approximately 4° C.) and new stock solutions prepared at intervals of two weeks and one month. Statistical calculations in the report tables were calculated from unrounded concentration values taken directly from the raw data. The concentration values were rounded for display purposes. Fresh stock solutions of sodium 2,2-dimethylbutyrate were prepared at intervals of two weeks and 1, 2, 3 and 3.5 months after the initial standard preparation. Similarly, the stability intervals for DMV were two weeks and 1, 2 and 3 months. The initial (or old) stock solutions and the fresh stock solutions were diluted into the calibration standard range and analyzed. The peak areas for the fresh (new) and old standard solutions were compared. Beginning with the 2-month stability analysis, sodium 2,2-dimethylbutyrate and DMV stock solutions were analyzed underivatized. This was done since the peak areas of both sodium 2,2-dimethylbutyrate and DMV varied among replicate derivatized preparations. Analyzing the standard solutions underivatized was a simpler procedure which gave more accurate and precise results

Stock solution stability, RE % (to New) of old stock peak area (1 Month Interval): 23.9%
Stock solution stability, RE % (to New) of old stock peak area (2 Month Interval, underivatized): 14.3%
Stock solution stability, RE % (to New) of old stock peak area (2 Week Interval): 16.7%
Stock solution stability, RE % (to New) of old stock peak area (3 Month Interval, underivatized): 17.8%
Stock solution stability, RE % (to New) of old stock peak area (~2 Month Interval, repeated with the 1 month stock solution as old, underivatized): −7.2%
Time stock solutions are stable (stock solution in acetonitrile/water stored in a refrigerator at approximately 4° C.): at least 2 months
SMILES: CCCC(C)(C)C(=O)O [DMV, 2,2-Dimethylvaleric acid, reference compound]
